Tests used:
Assay type in all cases: in vivo
Canada Thistle [1] = assay: pre-emergent herbicidal activity test
Description: (§1) Table II summarizes results of tests conducted to determine the pre-emergent as well as the post-emergent herbicidal activity of the compounds. The pre-emergent test was conducted as follows:
(§2) A good grade of top soil was placed in aluminum pans and compacted to a depth of three-eighths to one-half inch from the top of the pan. On the top of the soil was placed a predetermined number of seeds or vegetative propagules of various plant species. The soil required to level fill the pans after seeding or adding vegetative propagules was weighed into a pan. A known amount of the active ingredient applied in a solvent or as a wettable powder and the soil were thoroughly mixed, and used as a cover layer for prepared pans. After treatment the pans were moved into a greenhouse bench where they were watered from below as needed to give adequate moisture for germination and growth.
(§3) A herbicial rating code was used to signify the extent of phytotoxicity of each species. The rating are defined as follows: […]

Bromus tectorum [2] = assay: pre-emergent herbicidal activity test
Description: as §1, §2, §3

Lambsquarter [3] = assay: pre-emergent herbicidal activity test
Description: as §1, §2, §3

Quackgrass [4] = assay: pre-emergent herbicidal activity test
Description: as §1, §2, §3

Johnsongrass [5] = assay: pre-emergent herbicidal activity test
Description: as §1, §2, §3

Barnyard grass [6] = assay: pre-emergent herbicidal activity test
Description: as §1, §2, §3

Velvetleaf [7] = assay: pre-emergent herbicidal activity test
Description: as §1, §2, §3

Morningglory [8] = assay: pre-emergent herbicidal activity test
Description: as §1, §2, §3

Nutsedge [9] = assay: pre-emergent herbicidal activity test
Description: as §1, §2, §3

Cocklebur [10] = assay: pre-emergent herbicidal activity test
Description: as §1, §2, §3

Smartweed [11] = assay: pre-emergent herbicidal activity test
Description: as §1, §2, §3

Canada Thistle [12] = assay: post-emergent herbicidal activity test
Description: (§4) The post-emergent tests were conducted as follows. The active ingredients are applied in spray form to two or three-week old specimens of various plant species. The spray, a solution or wettable powder suspension containing the appropriate rate of active ingredient to give the desired test rate and a surfactant, is applied to the plants. The treated plants are placed in a greenhouse and unless otherwise noted approximately four weeks later the effects are observed and recorded.

Bromus tectorum [13] = assay: post-emergent herbicidal activity test
Description: as §4

Lambsquarter [14] = assay: post-emergent herbicidal activity test
Description: as §4

Quackgrass [15] = assay: post-emergent herbicidal activity test
Description: as §4

Johnsongrass [16] = assay: post-emergent herbicidal activity test
Description: as §4

Barnyard grass [17] = assay: post-emergent herbicidal activity test
Description: as §4

Velvetleaf [18] = assay: post-emergent herbicidal activity test
Description: as §4

Morningglory [19] = assay: post-emergent herbicidal activity test
Description: as §4

Nutsedge [20] = assay: post-emergent herbicidal activity test
Description: as §4

Cocklebur [21] = assay: post-emergent herbicidal activity test
Description: as §4

Smartweed [22] = assay: post-emergent herbicidal activity test
Description: as §4

[23] = 11.2 Kg/Ha, approximately 28 days after seeding and treating
[24] = *11.2 Kg/Ha, observed approximately 14 days after treatment
[25] = 11.2 Kg/Ha, approximately four weeks later
Further: ranges in brackets are in %.

Compound: CCOC(=O)c1cn(CC)nc1-c1cccc(C(F)(F)F)c1 [Example 1]
- Pre-Emergent herbicidal rating, A Canada Thistle (Canada Thistle [1]; [23]): 1 (25-49)
- Pre-Emergent herbicidal rating, A Canada Thistle (Canada Thistle [1]; [24]): 1 (25-49)
- Pre-Emergent herbicidal rating, J Bromus tectorum (Bromus tectorum [2]; [23]): 1 (25-49)
- Pre-Emergent herbicidal rating, J Bromus tectorum (Bromus tectorum [2]; [24]): 2 (50-74)
- Pre-Emergent herbicidal rating, E Lambsquarter (Lambsquarter [3]; [23]): 3 (75-100)
- Pre-Emergent herbicidal rating, E Lambsquarter (Lambsquarter [3]; [24]): 3 (75-100)
- Pre-Emergent herbicidal rating, H Quackgrass (Quackgrass [4]; [23]): 0 (0-24)
- Pre-Emergent herbicidal rating, H Quackgrass (Quackgrass [4]; [24]): 1 (25-49)
- Pre-Emergent herbicidal rating, I Johnsongrass (Johnsongrass [5]; [23]): 0 (0-24)
- Pre-Emergent herbicidal rating, I Johnsongrass (Johnsongrass [5]; [24]): 0 (0-24)
- Pre-Emergent herbicidal rating, K Barnyard grass (Barnyard grass [6]; [23]): 3 (75-100)
- Pre-Emergent herbicidal rating, K Barnyard grass (Barnyard grass [6]; [24]): 3 (75-100)
- Pre-Emergent herbicidal rating, C Velvetleaf (Velvetleaf [7]; [23]): 3 (75-100)
- Pre-Emergent herbicidal rating, C Velvetleaf (Velvetleaf [7]; [24]): 3 (75-100)
- Pre-Emergent herbicidal rating, D Morningglory (Morningglory [8]; [23]): 0 (0-24)
- Pre-Emergent herbicidal rating, D Morningglory (Morningglory [8]; [24]): 2 (50-74)
- Pre-Emergent herbicidal rating, G Nutsedge (Nutsedge [9]; [23]): 0 (0-24)
- Pre-Emergent herbicidal rating, G Nutsedge (Nutsedge [9]; [24]): 0 (0-24)
- Pre-Emergent herbicidal rating, B Cocklebur (Cocklebur [10]; [23]): 0 (0-24)
- Pre-Emergent herbicidal rating, B Cocklebur (Cocklebur [10]; [24]): 1 (25-49)
- Pre-Emergent herbicidal rating, F Smartweed (Smartweed [11]; [23]): 1 (25-49)
- Pre-Emergent herbicidal rating, F Smartweed (Smartweed [11]; [24]): 3 (75-100)
- Post-Emergent herbicidal rating, A Canada Thistle (Canada Thistle [12]; [25]): 1 (25-49)
- Post-Emergent herbicidal rating, A Canada Thistle (Canada Thistle [12]; [24]): 1 (25-49)
- Post-Emergent herbicidal rating, J Bromus tectorum (Bromus tectorum [13]; [25]): 0 (0-24)
- Post-Emergent herbicidal rating, J Bromus tectorum (Bromus tectorum [13]; [24]): 1 (25-49)
- Post-Emergent herbicidal rating, E Lambsquarter (Lambsquarter [14]; [25]): 1 (25-49)
- Post-Emergent herbicidal rating, E Lambsquarter (Lambsquarter [14]; [24]): 1 (25-49)
- Post-Emergent herbicidal rating, H Quackgrass (Quackgrass [15]; [25]): 0 (0-24)
- Post-Emergent herbicidal rating, H Quackgrass (Quackgrass [15]; [24]): 1 (25-49)
- Post-Emergent herbicidal rating, I Johnsongrass (Johnsongrass [16]; [25]): 0 (0-24)
- Post-Emergent herbicidal rating, I Johnsongrass (Johnsongrass [16]; [24]): 1 (25-49)
- Post-Emergent herbicidal rating, K Barnyard grass (Barnyard grass [17]; [25]): 0 (0-24)
- Post-Emergent herbicidal rating, K Barnyard grass (Barnyard grass [17]; [24]): 1 (25-49)
- Post-Emergent herbicidal rating, C Velvetleaf (Velvetleaf [18]; [25]): 1 (25-49)
- Post-Emergent herbicidal rating, C Velvetleaf (Velvetleaf [18]; [24]): 1 (25-49)
- Post-Emergent herbicidal rating, D Morningglory (Morningglory [19]; [25]): 1 (25-49)
- Post-Emergent herbicidal rating, D Morningglory (Morningglory [19]; [24]): 1 (25-49)
- Post-Emergent herbicidal rating, G Nutsedge (Nutsedge [20]; [25]): 0 (0-24)
- Post-Emergent herbicidal rating, G Nutsedge (Nutsedge [20]; [24]): 1 (25-49)
- Post-Emergent herbicidal rating, B Cocklebur (Cocklebur [21]; [25]): 1 (25-49)
- Post-Emergent herbicidal rating, B Cocklebur (Cocklebur [21]; [24]): 1 (25-49)
- Post-Emergent herbicidal rating, F Smartweed (Smartweed [22]; [25]): 0 (0-24)
- Post-Emergent herbicidal rating, F Smartweed (Smartweed [22]; [24]): 1 (25-49)

Compound: CCOC(=O)c1cn(C)nc1-c1cc(C(F)(F)F)cc(C(F)(F)F)c1 [Example 10]
- Pre-Emergent herbicidal rating, A Canada Thistle (Canada Thistle [1]; [23]): 0 (0-24)
- Pre-Emergent herbicidal rating, A Canada Thistle (Canada Thistle [1]; [24]): 1 (25-49)
- Pre-Emergent herbicidal rating, J Bromus tectorum (Bromus tectorum [2]; [23]): 1 (25-49)
- Pre-Emergent herbicidal rating, J Bromus tectorum (Bromus tectorum [2]; [24]): 1 (25-49)
- Pre-Emergent herbicidal rating, E Lambsquarter (Lambsquarter [3]; [23]): 3 (75-100)
- Pre-Emergent herbicidal rating, E Lambsquarter (Lambsquarter [3]; [24]): 3 (75-100)
- Pre-Emergent herbicidal rating, H Quackgrass (Quackgrass [4]; [23]): 0 (0-24)
- Pre-Emergent herbicidal rating, H Quackgrass (Quackgrass [4]; [24]): 0 (0-24)
- Pre-Emergent herbicidal rating, I Johnsongrass (Johnsongrass [5]; [23]): 0 (0-24)
- Pre-Emergent herbicidal rating, I Johnsongrass (Johnsongrass [5]; [24]): 0 (0-24)
- Pre-Emergent herbicidal rating, K Barnyard grass (Barnyard grass [6]; [23]): 2 (50-74)
- Pre-Emergent herbicidal rating, K Barnyard grass (Barnyard grass [6]; [24]): 3 (75-100)
- Pre-Emergent herbicidal rating, C Velvetleaf (Velvetleaf [7]; [23]): 0 (0-24)
- Pre-Emergent herbicidal rating, C Velvetleaf (Velvetleaf [7]; [24]): 1 (25-49)
- Pre-Emergent herbicidal rating, D Morningglory (Morningglory [8]; [23]): 0 (0-24)
- Pre-Emergent herbicidal rating, D Morningglory (Morningglory [8]; [24]): 1 (25-49)
- Pre-Emergent herbicidal rating, G Nutsedge (Nutsedge [9]; [23]): 0 (0-24)
- Pre-Emergent herbicidal rating, G Nutsedge (Nutsedge [9]; [24]): 0 (0-24)
- Pre-Emergent herbicidal rating, B Cocklebur (Cocklebur [10]; [23]): 0 (0-24)
- Pre-Emergent herbicidal rating, B Cocklebur (Cocklebur [10]; [24]): 0 (0-24)
- Pre-Emergent herbicidal rating, F Smartweed (Smartweed [11]; [23]): 0 (0-24)
- Pre-Emergent herbicidal rating, F Smartweed (Smartweed [11]; [24]): 1 (25-49)
- Post-Emergent herbicidal rating, A Canada Thistle (Canada Thistle [12]; [25]): 1 (25-49)
- Post-Emergent herbicidal rating, A Canada Thistle (Canada Thistle [12]; [24]): 2 (50-74)
- Post-Emergent herbicidal rating, J Bromus tectorum (Bromus tectorum [13]; [25]): 0 (0-24)
- Post-Emergent herbicidal rating, J Bromus tectorum (Bromus tectorum [13]; [24]): 0 (0-24)
- Post-Emergent herbicidal rating, E Lambsquarter (Lambsquarter [14]; [25]): 2 (50-74)
- Post-Emergent herbicidal rating, E Lambsquarter (Lambsquarter [14]; [24]): 1 (25-49)
- Post-Emergent herbicidal rating, H Quackgrass (Quackgrass [15]; [25]): 0 (0-24)
- Post-Emergent herbicidal rating, H Quackgrass (Quackgrass [15]; [24]): 0 (0-24)
- Post-Emergent herbicidal rating, I Johnsongrass (Johnsongrass [16]; [25]): 0 (0-24)
- Post-Emergent herbicidal rating, I Johnsongrass (Johnsongrass [16]; [24]): 0 (0-24)
- Post-Emergent herbicidal rating, K Barnyard grass (Barnyard grass [17]; [25]): 1 (25-49)
- Post-Emergent herbicidal rating, K Barnyard grass (Barnyard grass [17]; [24]): 0 (0-24)
- Post-Emergent herbicidal rating, C Velvetleaf (Velvetleaf [18]; [25]): 0 (0-24)
- Post-Emergent herbicidal rating, C Velvetleaf (Velvetleaf [18]; [24]): 1 (25-49)
- Post-Emergent herbicidal rating, D Morningglory (Morningglory [19]; [25]): 2 (50-74)
- Post-Emergent herbicidal rating, D Morningglory (Morningglory [19]; [24]): 2 (50-74)
- Post-Emergent herbicidal rating, G Nutsedge (Nutsedge [20]; [25]): 0 (0-24)
- Post-Emergent herbicidal rating, G Nutsedge (Nutsedge [20]; [24]): 0 (0-24)
- Post-Emergent herbicidal rating, B Cocklebur (Cocklebur [21]; [25]): 2 (50-74)
- Post-Emergent herbicidal rating, B Cocklebur (Cocklebur [21]; [24]): 2 (50-74)
- Post-Emergent herbicidal rating, F Smartweed (Smartweed [22]; [25]): 0 (0-24)
- Post-Emergent herbicidal rating, F Smartweed (Smartweed [22]; [24]): 1 (25-49)
